The term pKa denotes the pH at which an ionisable group is half protonated.

Several values for one entry are separate records, joined by “and”; a condition that tells them apart may be missing. Identical values can stand only once. Like-named read-outs stand apart in the source and are kept apart here.

For series [1] the following is noted: acid-base indicator; cited from earlier work.
For series [2] the following is noted: cited from earlier work.
The test system of the next series is cells. To be noted: photolyzed in cells; cited from earlier work.
Series [3] can be described thus: Ca2+ affinity by UV spectra during titration of EGTA or HEEDTA buffers. The series is classed as binding. To be noted: after photolysis; Hill plot / equilibrium measurements; read-out: Kd (Ca2+) / affinity after photolysis. The procedure:
The titration was done at 22° C. with 10 mL of 100 mM KCl, 10 mM K-MOPS, 10 mM K2 H.HEEDTA, and 14 […] diazo-2 as starting materials, adjusting the pH to 7.24, recording the spectrum, and then discarding 1.0 mL of this solution and replacing with 1.0 mL of 100 mM KCl, 10 mM K.MOPS, 10 mM KCa.HEEDTA, 14 μM diazo-2, readjusting the pH to 7.24, and recording the spectra, which was then in 9 mM K2H.HEEDTA. Subsequent iterations to reach n mM KCa.HEEDTA, (10-n) mM HEEDTA, n=2-10, were done by discarding 10.0/(11-n) mL and replacing with equal volumes of the 10mM KCa.HEEDTA, 14 μM diazo-2 stock. After n=10 had been reached to give free Ca^2+ between 10^-5 and 10^-4 M, addition of 1 mM CaCl2 had no further effect on the spectrum. For clarity only six spectra are including in the figure, n=0, 2, 4, 6, 8, and 10. Each spectrum is labeled with the calculated free [Ca^2+ ] imposed by the HEEDTA buffer, assuming a log effective stability constant of 5.55 at pH 7.24.
The phenylacetate was produced by irradiating a 30 μM solution of diazo-2 in 100 mM KCl, 10 mM Tris.HCl, 10 mM K2 H.HEEDTA, pH 8.40, with Spectroline lamp at 365 nm to completion. The titration was then performed as in A but the pH was maintained at 8.40, at which the calculated log effective stability is constant for HEEDTA was 6.60.
Ca^2+ -binding constants for chelators before and after photolysis were determined by monitoring UV spectra during titration of EGTA or HEEDTA buffers to varying free Ca^2+ levels.
Either the ratio of, for example, [Ca.EGTA] to free [EGTA] was adjusted at a constant pH, or the pH was varied while [Ca.EGTA]=[EGTA]. These two approaches gave equivalent answers for pH>7 whenever directly tested, because of the pH insensitivity of BAPTA-like ligands (see FIG. 1 legend for more details). The apparent dissociation constants of Ca.EGTA and Ca.HEEDTA were calculated as described by R. Y. Tsien (1980); see also R. Y. Tsien, et al. (1986), S. R. Adams, et al. (1980), Grynkiewicz, et al., (1985), and Jackson, et al. (1987).

A short description of series [4]: Ca2+ binding kinetics of photolyzed diazo-2 by competition with HEEDTA after flash photolysis. From the text: Having determined the rate at which the high-affinity chelator was photochemically generated from diazo-2, the kinetics of Ca^2+ binding by the photolysis of diazo-2 was examined relying on the 1:1 competition between protons and Ca^2+ for the chelator HEEDTA, i.e.:
If diazo-2 is photolyzed in the presence of HEEDTA partially saturated with Ca^2+, the photo-generated Compound 3c would take some Ca^2+ away from HEEDTA. The newly freed HEEDTA would then take up some protons and lead to an alkalinization of the sample. The shift in Ca^2+ -binding equilibrium is thus visualized with an indicator like cresol red. Control experiments indicate that at HEEDTA buffer concentrations ≥2 mM, the intrinsic kinetics of the Ca^2+ -HEEDTA equilibrium was no longer limiting the speed of the final alkalinization.
It is noted that the solution first acidified owing to the formation and dissociation of the product carboxylic acid, but subsequently began realkalinizing as the newly formed product chelator competed with HEEDTA for Ca^2+. The time constant of the realkalinization was 2.8 ms (Table I). […]
FIG. 2B is a flash photolysis record of the kinetics of Ca^2+ uptake by photolyzed diazo-2. […] Monitoring the light transmission at 572 nm was performed as for A. Each small division of the ordinate corresponds to 3.4×10^-4 absorbance unit. […] As the photolyzed diazo-20 took Ca^2+ away from HEEDTA, the freed HEEDTA bound protons and thus alkalinized the solution, a process reflected by the increase in cresol red absorbance (i.e., decline in light transmission at 572 nm).
Kinetics of the conversion of diazo-2 and diazo-3 to the carboxylic acid products and the kinetics of Ca^2+ binding by photolyzed diazo-2 were measured by flash photolysis and pH monitoring. […]

For series [5] the following is noted: Mg.EGTA incl. monoprotonated form, pH 7.60, 0.1M ionic strength; assumed; read-out: apparent dissociation constant for Mg complex; cited from earlier work.

As to `Cc1cc(C2(c3ccc(O)c(C)c3)OS(=O)(=O)c3ccccc32)ccc1O` [Cresol red], the pKa in series [1] is listed as 8.2.

Consider `Cc1ccc(N(CC(=O)O)CC(=O)O)c(OCCOc2cc(-c3c4cc(Cl)c(=O)cc-4oc4cc(O)c(Cl)cc34)ccc2N(CC(=O)O)CC(=O)O)c1` [Fluo-3], for which the “enhancement of fluorescence quantum yield by Ca2+ binding” value in series [2] (Ca2+ binding) is listed as “about 40 fold”. In series [2] (read-out: Kd (Ca2+) of fluorescent indicator), the Kd was 0.4 µM.

With `Cc1ccc(N(CC(=O)O)CC(=O)O)c(OCCOc2cc(C(O)c3cc4c(cc3[N+](=O)[O-])OCO4)ccc2N(CC(=O)O)CC(=O)O)c1` (stereo not drawn) [nitr-5], in the series on cells, the “irradiation damage on photolysis in cells (in words)” value is “without noticeable irradiation damage”.

Turning to `Cc1ccc(N(CC(=O)O)CC(=O)O)c(OCCOc2cc(CC(=O)O)ccc2N(CC(=O)O)CC(=O)O)c1` [Compound 3c], the Kd in series [3] was ~0.073 µM and 0.073 µM. Further, the “time constant of realkalinization” value in series [4] (70 μM diazo-2, 2 mM HEEDTA half-saturated with Ca2+, free [Ca2+] 377 nM) is 2.8 ms. Besides, in series [4] (photolyzed diazo-2), the “koff, unimolecular rate constant for dissociation of Ca2+ complex” value was 58 s⁻¹ and the “kon, bimolecular rate constant for binding of Ca2+” value is 8e+08 M⁻¹ s⁻¹.

Consider `O=C(O)CN(CCOCCOCCN(CC(=O)O)CC(=O)O)CC(=O)O` [EGTA, ethylenebis(oxyethylenenitrilo)tetraacetic acid], for which the Kd in series [5] was 6000 µM.
